The values below come from ChEMBL document CHEMBL5543151, “Rational Design of a Novel Class of Human ClpP Agonists through a Ring-Opening Strategy with Enhanced Antileukemia Activity” (J Med Chem, 2024).

The structures appear in SMILES notation.

The subject of the first test is MV4-11. In words: Anti-leukemia activity against human MV4-11 cells assessed as decrease in cell proliferation incubated for 72 hrs by CCK-8 assay. It counts as functional, cell-based. The settings on record: MV4-11, 72 h. In general terms: Tetrazolium assays rely on reduction of a dye to a coloured formazan, in cell work by metabolically active cells.
A word on the IC50: it is the midpoint of a concentration-inhibition curve. With `Cc1cccc(CNc2nc(=O)c3c([nH]2)CCN(Cc2ccccc2)C3)c1`, the IC50 was 1630 nM.
As to `O=c1nc(NCc2ccc(Cl)c(Cl)c2)[nH]c2c1CN(Cc1ccccc1)CC2`, the IC50 is 450 nM.
In the case of `O=c1nc(NCc2ccc(Cl)cc2)[nH]c2c1CN(Cc1ccccc1)CC2`, the IC50 came out at 1690 nM.
As for `O=c1nc(NCc2ccc3ccccc3c2)[nH]c2c1CN(Cc1ccccc1)CC2`, the IC50 came out at 2400 nM.
As for `O=c1nc(NCc2ccc(F)c(F)c2)[nH]c2c1CN(Cc1ccccc1)CC2`, the IC50 stood at 480 nM.
In the case of `O=c1nc(NCc2ccccc2)[nH]c2c1CN(Cc1ccccc1F)CC2`, the IC50 is > 10000 nM.
Same read-out and setting: with `N#Cc1cccc(CN2CCc3[nH]c(NCc4cccc(F)c4)nc(=O)c3C2)c1` the figure was > 10000 nM.
Same read-out and setting: under `O=c1nc(NCC2CC2)[nH]c2c1CN(Cc1ccccc1)CC2` stands > 10000 nM; under `O=c1nc(NCc2ccc(C(F)(F)F)cc2)[nH]c2c1CN(Cc1ccccc1)CC2`, 1200 nM; under `Cc1ccc(CN2CCc3[nH]c(NCc4ccccc4)nc(=O)c3C2)cc1`, > 10000 nM.
Regarding `O=c1nc(NCc2ccc(C(F)(F)F)cc2)[nH]c2c1CN(Cc1ccc(Cl)c(Cl)c1)CC2`, the IC50 is > 10000 nM.
Take `O=c1nc(NCc2ccccc2)[nH]c2c1CN(Cc1ccc(Cl)c(Cl)c1)CC2`: the IC50 is 360 nM.
Turning to `O=c1[nH]c(NCCc2ccccc2)nc2c1CN(Cc1ccccc1)CC2`, the IC50 was > 10000 nM.
In the case of `O=c1nc(NCc2cccc(Br)c2)[nH]c2c1CN(Cc1ccccc1)CC2`, the IC50 is > 10000 nM.
In the case of `O=c1nc(NCc2ccccc2)[nH]c2c1CN(CCc1ccccc1)CC2`, the IC50 is > 10000 nM.
Turning to `O=c1nc(NCc2cccnc2)[nH]c2c1CN(Cc1ccccc1)CC2`, the IC50 was > 10000 nM.
For the molecule `O=c1nc(NCc2ccc3c(c2)OCO3)[nH]c2c1CN(Cc1cc(F)cc(F)c1)CC2`, the IC50 was > 10000 nM.
Take `O=c1nc(NCc2ccccc2F)[nH]c2c1CN(Cc1ccccc1)CC2`: the IC50 came to 930 nM.
Take `O=c1nc(NCc2ccc3c(c2)OCO3)[nH]c2c1CN(Cc1ccc(Cl)c(Cl)c1)CC2`: the IC50 was > 10000 nM.
As for `Cc1ccccc1CN1CCn2c1nc(=O)c1c2CCN(Cc2ccccc2)C1`, the IC50 came out at 350 nM.
On to `N#Cc1cccc(CN2CCc3[nH]c(NCc4ccccc4)nc(=O)c3C2)c1`, for which the IC50 stood at 450 nM.
In the case of `COc1ccc(CNc2nc(=O)c3c([nH]2)CCN(Cc2ccccc2)C3)cc1`, the IC50 came to 830 nM.
With `COc1cccc(CNc2nc(=O)c3c([nH]2)CCN(Cc2ccccc2)C3)c1`, the IC50 is > 10000 nM.
For the molecule `N#Cc1ccccc1CN1CCc2[nH]c(NCc3ccccc3)nc(=O)c2C1`, the IC50 is > 10000 nM.
With `Cc1ccccc1CNc1nc(=O)c2c([nH]1)CCN(Cc1cc(F)cc(F)c1)C2`, the IC50 was > 10000 nM.
As for `O=c1nc(NCc2ccccc2)[nH]c2c1CN(Cc1ccccc1)CC2`, the IC50 is > 10000 nM.
For the molecule `O=c1nc(NCC2CCCCC2)[nH]c2c1CN(Cc1ccccc1)CC2`, the IC50 was > 10000 nM.
Regarding `O=c1nc(NCc2ccc(C(F)(F)F)cc2)[nH]c2c1CN(Cc1cc(F)cc(F)c1)CC2`, the IC50 is > 10000 nM.
On the same count and under the same terms, with `O=c1nc(NCc2cnccn2)[nH]c2c1CN(Cc1ccccc1)CC2` the figure was > 10000 nM.
For `O=c1nc(NCc2ccc(F)cc2)[nH]c2c1CN(Cc1ccccc1)CC2`, the IC50 worked out at 360 nM.

A further test deals with ATP-dependent Clp protease proteolytic subunit, mitochondrial (Homo sapiens, UniProt Q16740). In words: Agonist activity at human Casein lysing protease P (HsClpP) assessed as increase in peptidase activity using fluorescent peptide AC-WLA-AMC as substrate measured after 2 hrs by […].
Chain of ATP-dependent Clp protease proteolytic subunit, mitochondrial (Q16740 whole entry): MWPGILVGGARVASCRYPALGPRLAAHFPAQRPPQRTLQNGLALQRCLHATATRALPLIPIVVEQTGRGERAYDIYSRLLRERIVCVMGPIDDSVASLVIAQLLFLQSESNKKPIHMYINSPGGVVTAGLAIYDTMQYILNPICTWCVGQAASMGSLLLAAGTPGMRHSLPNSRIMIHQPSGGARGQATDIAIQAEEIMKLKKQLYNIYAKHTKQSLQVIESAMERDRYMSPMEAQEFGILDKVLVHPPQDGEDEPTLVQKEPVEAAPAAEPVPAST
Conditions: not given
`Cc1cccc(CNc2nc(=O)c3c([nH]2)CCN(Cc2ccccc2)C3)c1`: the EC50 is > 10000 nM.
As to `O=c1nc(NCc2ccc(Cl)c(Cl)c2)[nH]c2c1CN(Cc1ccccc1)CC2`, the EC50 came to 610 nM.
With `O=c1nc(NCc2ccc(Cl)cc2)[nH]c2c1CN(Cc1ccccc1)CC2`, the EC50 was 1950 nM.
Regarding `O=c1nc(NCc2ccc3ccccc3c2)[nH]c2c1CN(Cc1ccccc1)CC2`, the EC50 was 2250 nM.
Take `O=c1nc(NCc2ccc(F)c(F)c2)[nH]c2c1CN(Cc1ccccc1)CC2`: the EC50 is 1410 nM.
Turning to `O=c1nc(NCc2ccccc2)[nH]c2c1CN(Cc1ccccc1F)CC2`, the EC50 was > 10000 nM.
Consider `N#Cc1cccc(CN2CCc3[nH]c(NCc4cccc(F)c4)nc(=O)c3C2)c1`, for which the EC50 was > 10000 nM.
`O=c1nc(NCC2CC2)[nH]c2c1CN(Cc1ccccc1)CC2`: the EC50 was > 10000 nM.
As for `O=c1nc(NCc2ccc(C(F)(F)F)cc2)[nH]c2c1CN(Cc1ccccc1)CC2`, the EC50 was found to be 2100 nM.
`Cc1ccc(CN2CCc3[nH]c(NCc4ccccc4)nc(=O)c3C2)cc1`: the EC50 was > 10000 nM.
The same measure, in the same setting: with `O=c1nc(NCc2ccc(C(F)(F)F)cc2)[nH]c2c1CN(Cc1ccc(Cl)c(Cl)c1)CC2` the figure was > 10000 nM.
For `O=c1nc(NCc2ccccc2)[nH]c2c1CN(Cc1ccc(Cl)c(Cl)c1)CC2`, the EC50 turned out to be 1000 nM.
For `O=c1[nH]c(NCCc2ccccc2)nc2c1CN(Cc1ccccc1)CC2`, the EC50 was > 10000 nM.
On to `O=c1nc(NCc2cccc(Br)c2)[nH]c2c1CN(Cc1ccccc1)CC2`, for which the EC50 is > 10000 nM.
Regarding `O=c1nc(NCc2ccccc2)[nH]c2c1CN(CCc1ccccc1)CC2`, the EC50 is > 10000 nM.
On to `O=c1nc(NCc2cccnc2)[nH]c2c1CN(Cc1ccccc1)CC2`, for which the EC50 is > 10000 nM.
Take `O=c1nc(NCc2ccc3c(c2)OCO3)[nH]c2c1CN(Cc1cc(F)cc(F)c1)CC2`: the EC50 was > 10000 nM.
For the molecule `O=c1nc(NCc2ccccc2F)[nH]c2c1CN(Cc1ccccc1)CC2`, the EC50 worked out at 1350 nM.
For the molecule `O=c1nc(NCc2ccc3c(c2)OCO3)[nH]c2c1CN(Cc1ccc(Cl)c(Cl)c1)CC2`, the EC50 was > 10000 nM.
For `Cc1ccccc1CN1CCn2c1nc(=O)c1c2CCN(Cc2ccccc2)C1`, the EC50 came to 1920 nM.
`N#Cc1cccc(CN2CCc3[nH]c(NCc4ccccc4)nc(=O)c3C2)c1`: the EC50 turned out to be 610 nM.
Take `COc1ccc(CNc2nc(=O)c3c([nH]2)CCN(Cc2ccccc2)C3)cc1`: the EC50 was 2020 nM.
Turning to `COc1cccc(CNc2nc(=O)c3c([nH]2)CCN(Cc2ccccc2)C3)c1`, the EC50 was > 10000 nM.
On to `N#Cc1ccccc1CN1CCc2[nH]c(NCc3ccccc3)nc(=O)c2C1`, for which the EC50 was > 10000 nM.
As to `Cc1ccccc1CNc1nc(=O)c2c([nH]1)CCN(Cc1cc(F)cc(F)c1)C2`, the EC50 is > 10000 nM.
Same read-out and setting: with `O=c1nc(NCc2ccccc2)[nH]c2c1CN(Cc1ccccc1)CC2` the figure was 1340 nM; with `O=c1nc(NCC2CCCCC2)[nH]c2c1CN(Cc1ccccc1)CC2`, > 10000 nM; with `O=c1nc(NCc2ccc(C(F)(F)F)cc2)[nH]c2c1CN(Cc1cc(F)cc(F)c1)CC2`, > 10000 nM.
Turning to `O=c1nc(NCc2cnccn2)[nH]c2c1CN(Cc1ccccc1)CC2`, the EC50 was > 10000 nM.
Same read-out and setting: with `O=c1nc(NCc2ccc(F)cc2)[nH]c2c1CN(Cc1ccccc1)CC2` the figure was 1000 nM.
